Values after ≈ are worked out from the molar mass of the structure shown. Where two headings read alike, the source gives them in different places.
Experiments:
[1] = tested on: Clostridium difficile spores (ATCC 630 strain); test: Treatment of Clostridium difficile infection in golden hamsters; assay type: in vivo; details: golden hamsters challenged with C. difficile spores; for survival / mortality after drug withdrawal, observed until the 45th day: twice a day for 20 days (I-3 100 mg/kg, vancomycin 10 mg/kg, fidaxomicin 10 mg/kg, nitazoxanide 100 mg/kg); for time after drug withdrawal at which deaths occurred / began: drugs removed from the 21st day
Method: 60 of 5-week-old male golden hamsters, weighing 70-90 g, were purchased from Beijing Vital River Laboratory Animal Technology Co., Ltd. After one week of adaptive feeding, golden hamsters were randomly divided into six groups. The model group and four test groups were orally administrated 10 mg/kg clindamycin, while the blank group was given the same volume of normal saline, and this day was recorded as day −1. On day 0, the model group and the test groups were challenged with Clostridium difficile spores (ATCC 630 strain), and each hamster received 5E4 spores. The blank group was not treated. Starting from the first day, four test groups were administered 100 mg/kg of compound I-3 according to the present invention, 10 mg/kg of vancomycin, 10 mg/kg of fidaxomicin, and 100 mg/kg of nitazoxanide twice a day, respectively; the blank group and the model group were given equal amounts of normal saline for a total of 20 days. During this period, the changes in weight, the diarrhea, and the mortality of animals were observed. Starting from the 21st day, the drugs were removed, but the observation was continued until the 45th day.

[2] = tested on: Clostridium difficile ATCC 630; test: In vitro MIC, agar dilution, Clostridium difficile ATCC 630; assay type: cell-based; details: Clostridioides difficile, read-out: MIC values, Clostridium difficile ATCC 630
[3] = tested on: Clostridium difficile ATCC BBA1870; test: In vitro MIC, agar dilution, Clostridium difficile ATCC BBA1870; assay type: cell-based; details: Clostridioides difficile, ATCCBBA1870, 48 h, read-out: MIC values, Clostridium difficile ATCC BBA1870
[4] = tested on: Clostridium difficile ATCC 700057; test: In vitro MIC, agar dilution, Clostridium difficile ATCC 700057; assay type: cell-based; details: Clostridioides difficile, read-out: MIC values, Clostridium difficile ATCC 700057
[5] = tested on: Bifidobacterium bifidum CGMCC NO.1.5091; test: Selectivity on intestinal probiotics, MIC, agar dilution; assay type: cell-based; details: read-out: MIC value, Bifidobacterium bifidum CGMCC NO.1.5091
Method: (§1) ATCC19435, Lactobacillus rhamnosus ATCC7469, Lactobacillus bulgaricus ATCC11842, and the test was performed using Brucella agar medium. The strains frozen at −80° C. were seeded in solid agar medium. The medium was placed in a 37° C. incubator and anaerobically cultivated for 24-48 h. […] For compound I-3 of the present invention, a high concentration (100× test concentration) of working solution was prepared and used on the same day, and 100% DMSO was used as the solvent. As for the preparation of each agar plate for each diluted concentration, 20 μl of high concentration working solution was mixed with 2 ml of melted Brucella agar with supplements (45-55° C.), and then added to a 6-well plate for solidification. 1% DMSO was used as growth control. On the day of the experiment, an appropriate amount of single bacterial colony was selected and suspended in physiological saline. A turbidity meter was used to adjust the turbidity of the bacterial solution to OD600=0.2, and thus the density was about 1×10^8 CFU/ml. 2 μl of such bacterial solution was directly seeded on a solid dilution agar plate of each compound. […] Then, all of the test plates were subjected to anaerobic cultivation at 35±2° C. for 48 h.

[6] = tested on: Lactobacillus bulgaricus ATCC11842; test: as above; assay type: cell-based; details: read-out: MIC value, Lactobacillus bulgaricus ATCC11842
Method: as §1

[7] = tested on: Lactobacillus rhamnosus ATCC7469; test: as above; assay type: cell-based; details: Lacticaseibacillus rhamnosus, read-out: MIC value, Lactobacillus rhamnosus ATCC7469
Method: as §1

[8] = tested on: Lactobacillus acidophilus ATCC4356; test: as above; assay type: cell-based; details: read-out: MIC value, Lactobacillus acidophilus ATCC4356
Method: as §1

[9] = tested on: Enterococcus faecalis ATCC19433; test: as above; assay type: cell-based; details: read-out: MIC value, Enterococcus faecalis ATCC19433
Method: as §1

[10] = tested on: Lactococcus lactis subsp. ATCC19435; test: as above; assay type: cell-based; details: read-out: MIC value, Lactococcus lactis subsp. ATCC19435
Method: as §1

ATCC BAA-835 = test: as above; assay type: cell-based; details: read-out: MIC value, ATCC BAA-835
Method: as §1

[11] = ATCC630, Brucella agar with supplements, anaerobic cultivation 48 h
[12] = ATCC700057, Brucella agar with supplements, anaerobic cultivation 48 h
[13] = CGMCC1, probiotic strain, Brucella agar, anaerobic cultivation 48 h
[14] = ATCC11842, probiotic strain, Brucella agar, anaerobic cultivation 48 h
[15] = ATCC7469, probiotic strain, Brucella agar, anaerobic cultivation 48 h
[16] = ATCC4356, probiotic strain, Brucella agar, anaerobic cultivation 48 h
[17] = ATCC19433, probiotic strain, Brucella agar, anaerobic cultivation 48 h
[18] = ATCC19435, probiotic strain, Brucella agar, anaerobic cultivation 48 h
[19] = probiotic strain, Brucella agar, anaerobic cultivation 48 h

Compound	survival / mortality after drug withdrawal, observed until the 45th day [1]	MIC [3] [µg/mL]	MIC [2, 11] [µg/mL]	MIC [4, 12] [µg/mL]	MIC [5, 13] [µg/mL]	MIC [6, 14] [µg/mL]	MIC [7, 15] [µg/mL]	MIC [8, 16] [µg/mL]	MIC [9, 17] [µg/mL]	MIC [10, 18] [µg/mL]	MIC (ATCC BAA-835; [19]) [µg/mL]	further results
CN[C@H](CC(C)C)C(=O)N[C@H]1C(=O)N[C@@H](CC(N)=O)C(=O)N[C@H]2C(=O)N[C@H]3C(=O)N[C@H](C(=O)N[C@H](C(=O)O)c4cc(O)cc(O)c4-c4cc3ccc4O)[C@H](O)c3ccc(c(Cl)c3)Oc3cc2cc(c3O[C@@H]2O[C@H](CO)[C@@H](O)[C@H](O)[C@H]2O[C@H]2C[C@](C)(N)[C@H](O)[C@H](C)O2)Oc2ccc(cc2Cl)[C@H]1O [vancomycin]	all hamsters in the vancomycin group died	1 (≈ 0.69 µM)										MIC ([2]; ATCC630, 48 h): 2 µg/mL (≈ 1.38 µM); MIC ([4]; ATCC700057, 48 h): 1 µg/mL (≈ 0.69 µM); MIC ([5]; CGMCC1, 48 h): 4 µg/mL (≈ 2.76 µM); MIC ([6]; ATCC11842, 48 h): > 256 µg/mL; MIC ([7]; ATCC7469, 48 h): 256 µg/mL (≈ 177 µM); MIC ([8]; ATCC4356, 48 h): 4 µg/mL (≈ 2.76 µM); MIC ([9]; ATCC19433, 48 h): 4 µg/mL (≈ 2.76 µM); MIC ([10]; ATCC19435, 48 h): 4 µg/mL (≈ 2.76 µM); MIC (ATCC BAA-835; 48 h): 8 µg/mL (≈ 5.52 µM)
CCCCCCCCCCCCCC(=O)Oc1ccccc1C(=O)Nc1ncc([N+](=O)[O-])s1 [Compound I-4]		0.25 (≈ 0.526 µM)	0.0625 (≈ 0.131 µM)	0.125 (≈ 0.263 µM)								
CCCCCCCCCCCC(=O)Oc1ccccc1C(=O)Nc1ncc([N+](=O)[O-])s1 [Compound I-3]	only one animal died	0.125 (≈ 0.279 µM)	0.0625 (≈ 0.14 µM)	0.0625 (≈ 0.14 µM)	128 (≈ 286 µM)	> 256	> 256	> 256	256 (≈ 572 µM)	256 (≈ 572 µM)	128 (≈ 286 µM)	time after drug withdrawal at which deaths occurred / began [1]: 7 days
CCCC(=O)Oc1ccccc1C(=O)Nc1ncc([N+](=O)[O-])s1 [Compound I-1]		0.25 (≈ 0.746 µM)	0.0625 (≈ 0.186 µM)	0.25 (≈ 0.746 µM)								
CC(=O)Oc1ccccc1C(=O)Nc1ncc([N+](=O)[O-])s1 [nitazoxanide, Nitazoxanide]	four hamsters in the nitroxide group survived	0.5 (≈ 1.63 µM)	0.125 (≈ 0.407 µM)	0.125 (≈ 0.407 µM)	32 (≈ 104 µM)	64 (≈ 208 µM)	256 (≈ 833 µM)	64 (≈ 208 µM)	64 (≈ 208 µM)	8 (≈ 26 µM)	1 (≈ 3.25 µM)	
CCCCCCCC(=O)Oc1ccccc1C(=O)Nc1ncc([N+](=O)[O-])s1 [Compound I-2]		0.25 (≈ 0.639 µM)	0.0625 (≈ 0.16 µM)	0.25 (≈ 0.639 µM)								
CCc1c(Cl)c(O)c(Cl)c(O)c1C(=O)O[C@H]1[C@H](O)[C@H](OC)[C@H](OC/C2=C\C=C\C[C@H](O)/C(C)=C/[C@H](CC)[C@@H](O[C@@H]3OC(C)(C)[C@@H](OC(=O)C(C)C)[C@H](O)[C@@H]3O)/C(C)=C/C(C)=C/C[C@@H]([C@@H](C)O)OC2=O)O[C@@H]1C [fidaxomicin]	all of them died				4 (≈ 3.78 µM)	128 (≈ 121 µM)	16 (≈ 15.1 µM)	128 (≈ 121 µM)	1 (≈ 0.945 µM)	64 (≈ 60.5 µM)	1 (≈ 0.945 µM)	time after drug withdrawal at which deaths occurred / began [1]: 15 days
